Measured values taken from ChEMBL document CHEMBL4619824, “Identification of Novel Rho-Kinase-II Inhibitors with Vasodilatory Activity” (ACS Med Chem Lett, 2020).

Target: Rho-associated protein kinase 2 (Homo sapiens, UniProt O75116)
Assay: Inhibition of ROCK2 (unknown origin) assessed as phosphorylation of MYPT1 using Tetramethylbenzidine as substrate in presence of ATP

Sequence of Rho-associated protein kinase 2 (O75116 whole entry): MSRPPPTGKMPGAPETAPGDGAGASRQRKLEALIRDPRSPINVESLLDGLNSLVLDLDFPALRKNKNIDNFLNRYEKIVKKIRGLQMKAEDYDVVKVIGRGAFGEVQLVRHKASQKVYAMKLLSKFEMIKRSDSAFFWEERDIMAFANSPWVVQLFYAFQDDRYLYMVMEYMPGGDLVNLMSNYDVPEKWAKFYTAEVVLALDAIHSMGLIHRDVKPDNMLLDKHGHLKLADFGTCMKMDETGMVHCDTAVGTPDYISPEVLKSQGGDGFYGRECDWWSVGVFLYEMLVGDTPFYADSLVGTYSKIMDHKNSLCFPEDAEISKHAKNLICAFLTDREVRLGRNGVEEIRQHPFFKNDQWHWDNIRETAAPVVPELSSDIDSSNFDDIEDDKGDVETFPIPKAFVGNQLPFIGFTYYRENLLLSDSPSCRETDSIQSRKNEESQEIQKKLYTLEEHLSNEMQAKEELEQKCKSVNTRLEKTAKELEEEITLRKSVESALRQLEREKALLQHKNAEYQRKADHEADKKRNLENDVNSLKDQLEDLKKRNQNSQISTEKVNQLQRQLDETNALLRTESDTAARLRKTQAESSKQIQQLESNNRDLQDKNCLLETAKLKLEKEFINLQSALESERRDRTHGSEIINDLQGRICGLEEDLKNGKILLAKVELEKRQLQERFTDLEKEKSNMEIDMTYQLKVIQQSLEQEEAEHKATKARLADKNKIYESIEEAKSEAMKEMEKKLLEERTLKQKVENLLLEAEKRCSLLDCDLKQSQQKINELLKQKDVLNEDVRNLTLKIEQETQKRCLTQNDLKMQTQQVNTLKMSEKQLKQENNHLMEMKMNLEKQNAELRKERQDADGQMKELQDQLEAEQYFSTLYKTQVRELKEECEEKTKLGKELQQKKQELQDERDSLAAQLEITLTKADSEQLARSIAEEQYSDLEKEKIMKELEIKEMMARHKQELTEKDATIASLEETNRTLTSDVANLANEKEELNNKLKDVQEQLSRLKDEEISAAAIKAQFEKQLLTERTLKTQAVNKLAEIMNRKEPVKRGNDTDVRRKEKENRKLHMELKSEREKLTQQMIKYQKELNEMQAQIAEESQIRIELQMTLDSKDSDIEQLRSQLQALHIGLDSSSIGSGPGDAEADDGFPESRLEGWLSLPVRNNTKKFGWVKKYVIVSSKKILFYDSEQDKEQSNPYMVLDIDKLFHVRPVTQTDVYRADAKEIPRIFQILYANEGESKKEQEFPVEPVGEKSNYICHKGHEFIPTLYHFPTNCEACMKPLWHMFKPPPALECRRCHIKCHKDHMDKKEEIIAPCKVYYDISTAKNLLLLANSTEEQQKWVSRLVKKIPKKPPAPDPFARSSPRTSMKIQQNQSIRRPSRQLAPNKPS

| IC50 [nM] | SMILES |
| --- | --- |
| 9.01 | COC(=O)c1ccc(N(C)C(C(=O)c2ccccc2)c2ccccc2)cc1 (stereo not drawn) |
| 8.02 | CCC(O)CNCc1ccnc2ccc(OC)cc12 (stereo not drawn) |
| 8.4 | COCSC(C)CCSCCO (stereo not drawn) |
